Values quoted from earlier work, collected in the CATMoS acute toxicity set (Mansouri et al. 2021).
Where “and” joins values, the source holds several entries; their conditions need not be identical. Identical values can stand only once.

experiment: rat acute oral toxicity; settings: in vivo
Text: […]The data set underlying the modeling effort for this project was initially compiled by NICEATM and U.S. EPA’s CCTE. Briefly, LD50 data were collected from rat acute oral systemic toxicity tests, including limit tests, ranges/confidence intervals, and discrete LD50 values. The full data set included 21,200 LD50 entries for 15,688 substances. […] Data were reviewed to ensure that LD50 values with obvious errors in the extracted data such as unit conversion errors (e.g., comma and decimal separator misplacements) were either fixed or removed. After this review, 16,209 LD50 values remained. Many of the chemicals represented had multiple LD50 entries, requiring that a single representative value per Chemical Abstracts Service Registry Number (CASRN) identifier be defined to facilitate modeling efforts. Based on ATWG feedback and to define the representative LD50 as a protective value while accounting for the distribution across multiple LD50s, the median of the lowest quartile was computed using only discrete LD50 values (omitting limit test data and range and confidence interval data). A detailed summary of the data compilation is available online on the NICEATM webpage dedicated to the collaborative modeling project (NTP 2020).
[…][…] For categorical designations, limit test and range/confidence interval LD50 data were integrated wherever possible. As such, the number of chemicals with end point values/calls varies across the modeling end points (Table 3) based on whether chemicals had representative LD50 values and/or other data. If a chemical had both, the representative value was used to determine categorical calls rather than limit test data. Some data were useable only for certain end points and categories depending on the thresholds. For example, ranges that spanned multiple hazard categories were considered only for the binary (very toxic/nontoxic) end points and omitted from rendering a determination for hazard category assignment.
[…]The final data set comprising 11,992 chemicals was split into training and evaluation sets […], respectively. This process was performed semirandomly by ordering chemicals based on the five end points (categorical and continuous LD50 values) and partitioning every fourth record into the evaluation set accordingly. This approach was taken to ensure an equivalent distribution of the LD50 values and the different hazard categories between the training and the evaluation sets without supervised sampling of the chemicals based on structures (Figure 1A). The sources of the chemical structures were also kept equivalent between the two sets, with chemical structures obtained from DSSTox, being the highest quality, representing over 75% of each set (Figure 1B).

Going from CC1=C(C(=O)OC(C)C)C(c2cccc([N+](=O)[O-])c2)C(C(=O)OC2CN(C(c3ccccc3)c3ccccc3)C2)=C(N)N1 (stereo not given) to CCCCc1c(OC(=O)c2cc(OC)c(OC)c(OC)c2)n(-c2ccccc2)n(-c2ccccc2)c1=O, the LD50 rises from 1270 mg/kg to 3000 mg/kg (2.4-fold).

Compared with Cc1cc(C)c(C2=C(OC(=O)C(C)(C)C)c3ccccc3C2=O)c(C)c1, CCOC(=O)C1=C(C)NC(C)=C(C(=O)OCC)C1c1ccccc1/C=C/C(=O)OC(C)(C)C is 9.1-fold lower in LD50: 8000 mg/kg for the first, 880 mg/kg for the second.

First: Cc1ccccc1C(OC1CC2CCC(C1)N2C)c1ccccc1 (stereo not given)
Second: c1ccc(C2=C(c3ccccc3)SCCO2)cc1
The LD50 of the first is 7.5-fold lower: 400 mg/kg for the first, 3000 mg/kg for the second.

CCCCC(CC)COC(C[n+]1ccccc1)c1ccc(Cl)c(Cl)c1 (stereo not given) and CCCCC(CC)COC(CBr)c1cccc(C2CCCCC2)c1 (stereo not given) are the same in LD50: 250 mg/kg for the first, 250 mg/kg for the second.

Compared with Cc1cc2[nH]c(C(F)(F)F)nc2cc1Br, O=C(O)c1ccccc1Nc1cccc(C(F)(F)F)c1 is 3.2-fold higher in LD50: 77 mg/kg for the first, 249 mg/kg for the second.

Going from OCCOCCN(CCOCCO)CCN(CCOCCO)CCOCCO to CCCCCCCCCCCCCCCCCC1=NCCN1CCO, the LD50 falls from 9900 mg/kg to 3800 mg/kg (2.6-fold).

Compared with CNC(=O)Oc1cc(C)c(SC)c(C)c1, CCOP(=O)(NC)Oc1ccc(SC)c(C)c1 (stereo not given) is 4-fold lower in LD50: 20 mg/kg for the first, 5 mg/kg for the second.

Going from CNC(=O)ON=C1CSC(C)(C)S1 to COC(=O)/C(C)=C/OP(=S)(OC)OC, the LD50 rises from 2 mg/kg to 678 mg/kg (340-fold).

Going from CCc1nccnc1C to Cc1nccnc1SCc1ccco1, the LD50 rises from 600 mg/kg to 1000 mg/kg (1.7-fold).

First: O[C@H]([C@H](O)[C@@H]1CO1)[C@H]1CO1 (racemic)
Second: CC(C)CCCC1CCC(C)(C(=O)NCC(=O)O)CC1 (stereo not given)
The LD50 of the first is 740-fold lower: 14 mg/kg for the first, 10300 mg/kg for the second.

First: CCCCOC(=O)CC(SP(=O)(OC)OC)C(=O)OCCCC (stereo not given)
Second: CCCCCCC(C)P(=O)(C(C)CCCCCC)C(C)CCCCCC (stereo not given)
The LD50 of the first is 14-fold lower: 515 mg/kg for the first, 7270 mg/kg for the second.

First: CCCCSC(=Nc1cccnc1)SCc1ccc(C(C)(C)C)cc1
Second: CCOP(=O)(Cc1ccc(-c2nc3ccccc3s2)cc1)OCC
The LD50 of the first is 1.7-fold higher: 2700 mg/kg for the first, 1560 mg/kg for the second.

First: CCN(CC(=O)O)S(=O)(=O)C(F)(F)C(F)(F)C(F)(F)C(F)(F)C(F)(F)C(F)(F)C(F)(F)C(F)(F)F
Second: CCS(=O)(=O)CCO
The LD50 of the first is 29-fold lower: 619 mg/kg for the first, 18000 mg/kg for the second.

First: CC1CC2OC2CC1COC(=O)CCCCC(=O)OCC1CC2OC2CC1C (stereo not given)
Second: COc1cc(C(=O)OCCCCN2CCN(c3ccccc3)CC2)cc(OC)c1OC
The LD50 of the first is 1.7-fold higher: 4290 mg/kg for the first, 2500 mg/kg for the second.

Compared with NCCOCCN, COCCOC is 5.6-fold higher in LD50: 961 mg/kg for the first, 5370 mg/kg for the second.

First: O=S(=O)(Cl)c1ccccc1
Second: CCC(C)(O)Cc1ccccc1 (stereo not given)
The LD50 of the first is 2-fold lower: 1960 mg/kg for the first, 4000 mg/kg for the second.

Going from CCN1CC(CCN2CCOCC2)C(c2ccccc2)(c2ccccc2)C1=O (stereo not given) to COc1ccccc1N1CCN(CCC(=O)c2ccc(N3CCOCC3)cc2)CC1, the LD50 rises from 261 mg/kg to 400 mg/kg (1.5-fold).

Compared with CN(C)S(=O)(=O)CCCCCNC(=O)N(CCCl)N=O, CN(C)c1ccc(N=NS(=O)(=O)O)cc1 is 4.2-fold lower in LD50: 250 mg/kg for the first, 60 mg/kg for the second.

First: CC(C)=CCOC(=O)c1ccccc1
Second: CCOC(=O)c1noc(C)c1C(=O)c1ccccc1
The LD50 of the first is 4.7-fold higher: 4700 mg/kg for the first, 1000 mg/kg for the second.

Going from CNc1nc(NC(C)C)nc(OC)n1 to Cc1cc(C(C)(C)C)c(OB(OC(C)C)OC(C)C)c(C(C)(C)C)c1, the LD50 rises from 2400 mg/kg to 5200 mg/kg (2.2-fold).

Going from Cc1ccc(C)c(C)c1C to Cc1cc(C)nc(Nc2ccccc2)n1, the LD50 falls from 6410 mg/kg to 4150 mg/kg (1.5-fold).

First: CC(C)C(=O)OC(=O)C(C)C
Second: O=C(OC(=O)C(Cl)Cl)C(Cl)Cl
The LD50 of the first is 2.7-fold higher: 7700 mg/kg for the first, 2820 mg/kg for the second.

Going from O=C(O)Cc1cc(I)c(Oc2cc(I)c(O)c(I)c2)c(I)c1 to CC(C)Cc1cccc2c(CC(=O)O)cccc12, the LD50 rises from 0.825 mg/kg to 600 mg/kg (730-fold).

Going from Nc1c(S(=O)(=O)O)cc(Nc2ccc(S(=O)(=O)O)c(Nc3nc(Cl)nc(Cl)n3)c2)c2c1C(=O)c1ccccc1C2=O to Cc1ccccc1-n1c(CF)nc2ccc(N)cc2c1=O, the LD50 falls from 8980 mg/kg to 249 mg/kg (36-fold).

Compared with NCCc1c[nH]c2ccccc12, CCCc1ccccc1O is 1.7-fold higher in LD50: 300 mg/kg for the first, 500 mg/kg for the second.

Going from C=C(C)C(C)=O to O=C(Cl)c1ccc(Cl)cc1Cl, the LD50 rises from 180 mg/kg to 4640 mg/kg (26-fold).

c1ccc(C2CCCCC2)c(OCC2CNCCO2)c1 (stereo not given) and CN(C)CC(=O)N1Cc2ccccc2CC2CCCCC21 (stereo not given) are within 1.5-fold of each other in LD50: 1120 mg/kg for the first, 1400 mg/kg for the second.

First: O=c1ccc(O)n[nH]1
Second: CC12CC1(C)C(=O)N(c1cc(Cl)cc(Cl)c1)C2=O (stereo not given)
The LD50 of the first is 1.8-fold lower: 3900 mg/kg for the first, 7000 mg/kg for the second.

Going from N#C[C@H]1O[C@@H]1C#N to CC1=CCC2CC(CC3(CCC(C)C(C(C)C)O3)O2)OC(=O)C2C=C(C)C(O)C3OCC(=CC=CC(C)C1)C23O (stereo not given), the LD50 rises from 250 mg/kg to 2470 mg/kg (9.9-fold).

In the case of CCOc1ccc(-c2ccccc2)cc1CN1CCCC1, the LD50 is given as 30 mg/kg.

In the case of Nc1ccc(N=Nc2ccccc2)c(N)n1, the LD50 is listed as 472 mg/kg and 403 mg/kg.
